ChEMBL document CHEMBL2086259, “13,28-Epoxy triterpenoid saponins from Ardisia japonica selectively inhibit proliferation of liver cancer cells without affecting normal liver cells” (Bioorg Med Chem Lett, 2012)
Blank lines part the entries; values can stand above or below the compound they belong to. Calls of active or inactive are those of the source. The calls are words filed in the database; no cut-off is given here.

What was measured:
Bel-7402 [1] = assay: Cytotoxicity against human Bel7402 cells after 72 hrs by MTT assay; format: functional, cell-based; conditions: Bel-7402, 72 h
HepG2 = assay: Cytotoxicity against human HepG2 cells after 72 hrs by MTT assay; format: functional, cell-based; conditions: HepG2, 72 h
[2] = Cytotoxicity against human HL-7702 cells after 72 hrs by MTT assay; format: cell-based; conditions: L02, 72 h
A549 = assay: Cytotoxicity against human A549 cells after 72 hrs by MTT assay; format: functional, cell-based; conditions: A549, 72 h
NCI-H157 = assay: Cytotoxicity against human NCI-H157 cells after 72 hrs by MTT assay; format: functional, cell-based; conditions: NCI-H157, 72 h
NCI-H446 = assay: Cytotoxicity against human NCI-H446 cells after 72 hrs by MTT assay; format: functional, cell-based; conditions: NCI-H446, 72 h
SGC-7901 = assay: Cytotoxicity against human SGC7901 cells after 72 hrs by MTT assay; format: functional, cell-based; conditions: SGC-7901, 72 h
MKN-45 = assay: Cytotoxicity against human MKN45 cells after 72 hrs by MTT assay; format: functional, cell-based; conditions: MKN-45, 72 h
MCF7 = assay: Cytotoxicity against human MCF7 cells after 72 hrs by MTT assay; format: functional, cell-based; conditions: MCF7, 72 h
Bcap37 = assay: Cytotoxicity against human Bcap37 cells after 72 hrs by MTT assay; format: functional, cell-based; conditions: Bcap37, 72 h
Caco-2 = assay: Cytotoxicity against human Caco2 cells after 72 hrs by MTT assay; format: functional, cell-based; conditions: Caco-2, 72 h
HCT-116 = assay: Cytotoxicity against human HCT116 cells after 72 hrs by MTT assay; format: functional, cell-based; conditions: HCT-116, 72 h
OVCAR-3 = assay: Cytotoxicity against human OVCAR3 cells after 72 hrs by MTT assay; format: functional, cell-based; conditions: OVCAR-3, 72 h
DU-145 = assay: Cytotoxicity against human DU145 cells after 72 hrs by MTT assay; format: functional, cell-based; conditions: DU-145, 72 h
[3] = Cytotoxicity against human LTEP-A2 cells after 72 hrs by MTT assay; format: functional, cell-based; conditions: LTEP-A2, 72 h
NCI-H460 = assay: Cytotoxicity against human H460 cells after 72 hrs by MTT assay; format: functional, cell-based; conditions: NCI-H460, 72 h
Bel-7402 [4] = assay: Cytotoxicity against human Bel7402 cells at 2.5 uM by MTT assay; format: functional, cell-based; conditions: TDE = time-dependent effect
[5] = Cytotoxicity against human HL-7702 cells at 2.5 uM by MTT assay; format: cell-based; conditions: l02, 2.5 µM, TDE = time-dependent effect
Bel-7402 [6] = assay: Cytotoxicity against human Bel7402 cells measured for 72 hrs by MTT assay; format: functional, cell-based
[7] = Cytotoxicity against human HL-7702 cells measured for 72 hrs by MTT assay; format: cell-based; conditions: l02, 72 h
Bel-7402 [8] = assay: Cell cycle arrest in human Bel7402 cells assessed as accumulation at sub-G1 phase by FACS flow cytometry; format: functional
[9] = Cell cycle arrest in human HL-7702 cells assessed as accumulation at sub-G1 phase by FACS flow cytometry; format: cell-based; conditions: l02
Bel-7402 [10] = assay: Cell cycle arrest in human Bel7402 cells assessed as accumulation at G1 phase by FACS flow cytometry; format: functional
[11] = Cell cycle arrest in human HL-7702 cells assessed as accumulation at G1 phase by FACS flow cytometry; format: cell-based; conditions: l02
[12] = Cell cycle arrest in human HL-7702 cells assessed as accumulation at S phase by FACS flow cytometry; format: ADME, cell-based; conditions: l02
Bel-7402 [13] = assay: Cell cycle arrest in human Bel7402 cells assessed as accumulation at G2/M phase by FACS flow cytometry; format: functional
[14] = Cell cycle arrest in human HL-7702 cells assessed as accumulation at G2/M phase by FACS flow cytometry; format: cell-based; conditions: l02
Bel-7402 [15] = assay: Down regulation of Cyclin A expression in human Bel7402 cells at 2.5 uM after 48 hrs by Western blotting analysis; format: functional, cell-based
Bel-7402 [16] = assay: Down regulation of Cyclin B expression in human Bel7402 cells at 2.5 uM after 48 hrs by Western blotting analysis; format: functional, cell-based
Bel-7402 [17] = assay: Down regulation of CDK1 expression in human Bel7402 cells at 2.5 uM after 48 hrs by Western blotting analysis; format: functional, cell-based
Bel-7402 [18] = assay: Down regulation of CDK2 expression in human Bel7402 cells at 2.5 uM after 48 hrs by Western blotting analysis; format: functional, cell-based
Bel-7402 [19] = assay: Down regulation of CDK4 expression in human Bel7402 cells at 2.5 uM after 48 hrs by Western blotting analysis; format: functional, cell-based
Bel-7402 [20] = assay: Down regulation of Cdc25A expression in human Bel7402 cells at 2.5 uM after 48 hrs by Western blotting analysis; format: functional, cell-based
Bel-7402 [21] = assay: Down regulation of Cdc25A expression in human Bel7402 cells at 2.5 uM after 12 hrs by Western blotting analysis; format: functional, cell-based
[22] = Down regulation of Cyclin A expression in human HL-7702 cells assessed as reduction in mRNA level at 2.5 uM after 48 hrs by RT-PCR analysis; format: ADME, cell-based; design: scale not given: the % may be the effect or the level left; conditions: l02, 48 h
Bel-7402 [23] = assay: Induction of apoptosis in human Bel7402 cells assessed as caspase 8 activation; format: functional, cell-based
Bel-7402 [24] = assay: Induction of apoptosis in human Bel7402 cells assessed as increase in caspase 8 levels; format: functional, cell-based
[25] = […] of Cdc25A expression in human HL-7702 cells assessed as reduction in mRNA level at 2.5 uM after 12 to 48 hrs by RT-PCR analysis; format: ADME, cell-based; conditions: l02, 2.5 µM
Bel-7402 [26] = assay: Induction of apoptosis in human Bel7402 cells assessed as late apoptotic cells at 2.5 uM after 12 hrs by annexin V-FITC/propidium iodide staining based flow cytometry (reference value: 5.5 %); format: functional
Bel-7402 [27] = assay: Induction of apoptosis in human Bel7402 cells assessed as early apoptotic cells at 2.5 uM after 12 hrs by annexin V-FITC/propidium iodide staining based flow cytometry (reference value: 3.2 %); format: functional
Bel-7402 [28] = assay: Induction of apoptosis in human Bel7402 cells assessed as late apoptotic cells at 2.5 uM after 24 hrs by annexin V-FITC/propidium iodide staining based flow cytometry (reference value: 7.5 %); format: functional
Bel-7402 [29] = assay: Induction of apoptosis in human Bel7402 cells assessed as early apoptotic cells at 2.5 uM after 24 hrs by annexin V-FITC/propidium iodide staining based flow cytometry (reference value: 3.8 %); format: functional
Bel-7402 [30] = assay: Induction of apoptosis in human Bel7402 cells assessed as late apoptotic cells at 2.5 uM after 48 hrs by annexin V-FITC/propidium iodide staining based flow cytometry (reference value: 3.7 %); format: functional
Bel-7402 [31] = assay: Induction of apoptosis in human Bel7402 cells assessed as early apoptotic cells at 2.5 uM after 48 hrs by annexin V-FITC/propidium iodide staining based flow cytometry (reference value: 6.9 %); format: functional
[32] = Induction of apoptosis in human HL-7702 cells assessed as late apoptotic cells at 2.5 uM after 48 hrs by annexin V-FITC/propidium iodide staining based flow cytometry (Rvb =8.6 %); format: cell-based; conditions: l02, 48 h
[33] = Induction of apoptosis in human HL-7702 cells assessed as early apoptotic cells at 2.5 uM after 48 hrs by annexin V-FITC/propidium iodide staining based flow cytometry (Rvb =6.7 %); format: cell-based; conditions: l02, 48 h

Activity [9]: < 1%
Activity [11]: 68.4%
Activity [12]: 19.1%
Activity [14]: 12.5%
Activity [22]: 10%
Compound: CC1(C)CC[C@]23CO[C@@]4(CC[C@@H]5[C@@]6(C)CC[C@H](O[C@@H]7OC[C@H](O[C@@H]8O[C@H](CO)[C@@H](O)[C@H](O[C@@H]9O[C@H](CO)[C@@H](O)[C@H](O[C@@H]%10O[C@H](CO)[C@@H](O)[C@H](O)[C@H]%10O)[C@H]9O)[C@H]8O[C@@H]8OC[C@@H](O)[C@H](O)[C@H]8O)[C@H](O)[C@H]7O[C@@H]7O[C@H](CO)[C@@H](O)[C@H](O)[C@H]7O)C(C)(C)[C@@H]6CC[C@@]5(C)[C@]4(C)C[C@H]2O)[C@@H]3C1 [ARDISIANOSIDE B]
IC50 (Bel-7402 [1]): 0.92 µM
IC50 (HepG2): 2.98 µM
IC50 [2]: > 100 µM
IC50 (A549): 4.47 µM
IC50 (NCI-H157): 5.09 µM
IC50 (NCI-H446): 6.63 µM
IC50 (SGC-7901): 5.37 µM
IC50 (MKN-45): 8.39 µM
IC50 (MCF7): > 10 µM
IC50 (Bcap37): > 10 µM
IC50 (Caco-2): 7.19 µM
IC50 (HCT-116): > 10 µM
IC50 (OVCAR-3): > 10 µM
IC50 (DU-145): 6.17 µM
IC50 [3]: > 10 µM
IC50 (NCI-H460): > 10 µM
Activity (Bel-7402 [4]): tde
Activity [5]: tde
Activity (Bel-7402 [6]): Dose-dependent effect
Activity [7]: Dose-dependent effect
Activity (Bel-7402 [8]): 57.8%
Activity (Bel-7402 [10]): 74.5%
Activity (Bel-7402 [13]): 25.5%
Activity (Bel-7402 [15]): Active
Activity (Bel-7402 [16]): Active
Activity (Bel-7402 [17]): Active
Activity (Bel-7402 [18]): Active
Activity (Bel-7402 [19]): Active
Activity (Bel-7402 [20]): Active
Activity (Bel-7402 [21]): Active
Activity (Bel-7402 [23]): Active
Activity (Bel-7402 [24]): Active
Activity [25]: Toxic
Activity (Bel-7402 [26]): 3.9%
Activity (Bel-7402 [27]): 39.4%
Activity (Bel-7402 [28]): 3.2%
Activity (Bel-7402 [29]): 46.4%
Activity (Bel-7402 [30]): 41.5%
Activity (Bel-7402 [31]): 17.6%
Activity [32]: 9.2%
Activity [33]: 8.3%

Activity [9]: < 1%
Activity [11]: 67.3%
Activity [12]: 19.7%
Activity [14]: 12.3%
Compound: C[C@@H]1O[C@@H](O[C@H]2[C@H](O[C@H]3CO[C@@H](O[C@H]4CC[C@]5(C)[C@H]6CC[C@]78OC[C@@]9(CCC(C)(C)C[C@H]97)[C@H](O)C[C@@]8(C)[C@]6(C)CC[C@H]5C4(C)C)[C@H](O[C@@H]4O[C@H](CO)[C@@H](O)[C@H](O)[C@H]4O)[C@H]3O)O[C@H](CO)[C@@H](O)[C@@H]2O)[C@H](O)[C@H](O)[C@H]1O
IC50 (Bel-7402 [1]): 1.18 µM
IC50 (HepG2): 3.17 µM
IC50 [2]: > 100 µM
IC50 (A549): 4.41 µM
IC50 (NCI-H157): 5.21 µM
IC50 (NCI-H446): 7.74 µM
IC50 (SGC-7901): 5.88 µM
IC50 (MKN-45): 6.23 µM
IC50 (MCF7): > 10 µM
IC50 (Bcap37): > 10 µM
IC50 (Caco-2): 7.66 µM
IC50 (HCT-116): > 10 µM
IC50 (OVCAR-3): 8.22 µM
IC50 (DU-145): 5.47 µM
IC50 [3]: 7.92 µM
IC50 (NCI-H460): > 10 µM
Activity (Bel-7402 [4]): tde
Activity [5]: tde
Activity (Bel-7402 [6]): Dose-dependent effect
Activity [7]: Dose-dependent effect
Activity (Bel-7402 [8]): 48.4%
Activity (Bel-7402 [10]): 76.6%
Activity (Bel-7402 [13]): 23.4%
Activity (Bel-7402 [24]): Active
Activity [25]: Toxic
Activity (Bel-7402 [26]): 5.3%
Activity (Bel-7402 [27]): 36.5%
Activity (Bel-7402 [28]): 3.4%
Activity (Bel-7402 [29]): 42.3%
Activity (Bel-7402 [30]): 36.7%
Activity (Bel-7402 [31]): 16.1%
Activity [32]: 8.9%
Activity [33]: 7.2%
